In patent publication US20100022531A1, “NOVEL COMPOUNDS AS P2X7 MODULATORS AND USES THEREOF” (RENOVIS, INC., priority 2005, published 2010):
Read-outs that look alike come from different tables or passages of the source.

Target: T1, P2X7 receptor (Homo sapiens, UniProt Q99572)
T1 construct: host or cells: THP-1 cells differentiated with LPS and IFN-γ
T1 sequence (Q99572 1-595): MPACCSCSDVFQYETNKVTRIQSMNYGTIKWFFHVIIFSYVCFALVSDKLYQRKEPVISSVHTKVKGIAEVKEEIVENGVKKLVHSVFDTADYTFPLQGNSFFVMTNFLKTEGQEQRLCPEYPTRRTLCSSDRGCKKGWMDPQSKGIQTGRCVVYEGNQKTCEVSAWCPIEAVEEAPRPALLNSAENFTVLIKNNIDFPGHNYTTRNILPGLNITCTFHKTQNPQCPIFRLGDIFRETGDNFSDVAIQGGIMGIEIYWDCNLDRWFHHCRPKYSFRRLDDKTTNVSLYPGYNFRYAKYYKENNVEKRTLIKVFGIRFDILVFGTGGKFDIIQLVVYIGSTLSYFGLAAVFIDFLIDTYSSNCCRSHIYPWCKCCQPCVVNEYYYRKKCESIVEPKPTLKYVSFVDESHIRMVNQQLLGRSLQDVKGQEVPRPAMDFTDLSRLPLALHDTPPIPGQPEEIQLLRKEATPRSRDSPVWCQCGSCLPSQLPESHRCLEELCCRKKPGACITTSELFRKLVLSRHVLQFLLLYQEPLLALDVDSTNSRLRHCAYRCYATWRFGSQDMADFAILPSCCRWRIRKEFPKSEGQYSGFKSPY
Experiment: Alternate method for IL-1β release assay (differentiated THP-1 cells, BzATP-stimulated, ELISA)
Type: cell-based
Conditions: for inhibition at 0.1 µM: 0.1 μM compound (symbols + to ++++), read-out: IL-1β % inhib @ 0.1 μM
Method in brief: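 After 16 h differentiation with 100 ng/mL LPS and 100 ng/mL IFN-γ plus a further 2 h LPS priming, THP-1 cells were pretreated 30 min with compound, then stimulated with 250 uM BzATP (final) for 45 min. Supernatant IL-1β measured by ELISA; percent inhibition from background-adjusted levels versus untreated cells.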

[1] = P2X7, 0.3 μM compound (symbols * to ****), read-out: IL-1β % inhib @ 0.3 μM

Compound | inhibition at 0.3 µM [1] | further results
Fc1ccc(CN2CCc3c(ncnc3NCC34CC5CC(CC(C5)C3)C4)C2)c(F)c1 [Compound 220] | > 75% | –
c1cc(CN2CCc3c(ncnc3NCC34CC5CC(CC(C5)C3)C4)C2)ccn1 [Compound 221] | > 75% | –
Fc1cc(CN2CCc3c(ncnc3NCC34CC5CC(CC(C5)C3)C4)C2)ccc1Cl [Compound 222] | > 75% | –
Fc1cc(C(F)(F)F)ccc1CN1CCc2c(ncnc2NCC23CC4CC(CC(C4)C2)C3)C1 [Compound 223] | > 75% | –
Brc1ccc(CN2CCc3c(ncnc3NCC34CC5CC(CC(C5)C3)C4)C2)cn1 [Compound 224] | 0 to 25% | –
Brc1cccc(CN2CCc3c(ncnc3NCC34CC5CC(CC(C5)C3)C4)C2)c1 [Compound 225] | > 75% | –
COc1ccccc1CN1CCc2c(ncnc2NCC23CC4CC(CC(C4)C2)C3)C1 [Compound 226] | > 75% | –
CC(=O)Nc1ccc(CN2CCc3c(ncnc3NCC34CC5CC(CC(C5)C3)C4)C2)cc1 [Compound 227] | 0 to 25% | –
Brc1ccccc1CN1CCc2c(ncnc2NCC23CC4CC(CC(C4)C2)C3)C1 [Compound 228] | 0 to 25% | –
Fc1ccc(Br)cc1CN1CCc2c(ncnc2NCC23CC4CC(CC(C4)C2)C3)C1 [Compound 229] | 0 to 25% | –
c1nc2c(c(NCC34CC5CC(CC(C5)C3)C4)n1)CCN(CC1CCCC1)C2 [Compound 230] | > 75% | –
FC(F)(F)Oc1ccc(CN2CCc3c(ncnc3NCC34CC5CC(CC(C5)C3)C4)C2)cc1 [Compound 231] | 0 to 25% | –
FC(F)Oc1ccc(CN2CCc3c(ncnc3NCC34CC5CC(CC(C5)C3)C4)C2)cc1 [Compound 232] | 0 to 25% | –
Fc1ccc(COc2ccc(CN3CCc4c(ncnc4NCC45CC6CC(CC(C6)C4)C5)C3)cc2)cc1 [Compound 233] | 0 to 25% | –
COc1cc(F)c(CN2CCc3c(ncnc3NCC34CC5CC(CC(C5)C3)C4)C2)cc1OC [Compound 234] | 0 to 25% | –
COc1cc(F)c(CN2CCc3c(ncnc3NCC34CC5CC(CC(C5)C3)C4)C2)c(F)c1 [Compound 235] | 0 to 25% | –
CCOc1cccc(CN2CCc3c(ncnc3NCC34CC5CC(CC(C5)C3)C4)C2)c1 [Compound 236] | 50 to 75% | –
FC1(F)Oc2ccc(CN3CCc4c(ncnc4NCC45CC6CC(CC(C6)C4)C5)C3)cc2O1 [Compound 238] | 0 to 25% | –
COc1ccc(F)c(CN2CCc3c(ncnc3NCC34CC5CC(CC(C5)C3)C4)C2)c1 [Compound 239] | 0 to 25% | –
COc1cc(CN2CCc3c(ncnc3NCC34CC5CC(CC(C5)C3)C4)C2)ccc1F [Compound 240] | > 75% | –
CCOc1ccc(CN2CCc3c(ncnc3NCC34CC5CC(CC(C5)C3)C4)C2)cc1 [Compound 241] | > 75% | –
COc1ccc(OC)c(CN2CCc3c(ncnc3NCC34CC5CC(CC(C5)C3)C4)C2)c1 [Compound 242] | > 75% | –
FC(F)(F)Oc1cccc(CN2CCc3c(ncnc3NCC34CC5CC(CC(C5)C3)C4)C2)c1 [Compound 243] | > 75% | –
COc1cc(CN2CCc3c(ncnc3NCC34CC5CC(CC(C5)C3)C4)C2)cc(OC)c1 [Compound 244] | > 75% | –

Compound | inhibition at 0.3 µM [1] | further results
Clc1ccc(CN2CCc3c(ncnc3NCC34CC5CC(CC(C5)C3)C4)C2)cn1 [Compound 245] | > 75% | –
Fc1cc(Cl)ccc1CN1CCc2c(ncnc2NCC23CC4CC(CC(C4)C2)C3)C1 [Compound 246] | > 75% | –
CC12CC3(C)CC(C)(C1)CC(CNc1ncnc4c1CCN(Cc1ccccc1)C4)(C2)C3 [Compound 247] | 25 to 50% | –
O=C(COc1cccc(Cl)c1)N1CCc2c(ncnc2NCC23CC4CC(CC(C4)C2)C3)C1 [Compound 248, 1-{4-[(Adamantan-1-ylmethyl)-amino]-5,8-dihydro-6H-pyrido[3,4-d]pyrimidin-7-yl}-2-(3-chloro-phenoxy)-ethanone] | – | inhibition at 0.1 µM (P2X7): > 75%
O=C(C1CCOC1)N1CCc2c(ncnc2NCC23CC4CC(CC(C4)C2)C3)C1 (centres unmarked) [Compound 249, {4-[(Adamantan-1-ylmethyl)-amino]-5,8-dihydro-6H-pyrido[3,4-d]pyrimidin-7-yl}-(tetrahydro-furan-3-yl)-methanone] | – | inhibition at 0.1 µM (P2X7): 0 to 25%
O=C(O[C@@H]1CCOC1)N1CCc2c(ncnc2NCC23CC4CC(CC(C4)C2)C3)C1 [Compound 250, 4-[(Adamantan-1-ylmethyl)-amino]-5,8-dihydro-6H-pyrido[3,4-d]pyrimidine-7-carboxylic acid (R)-(tetrahydro-furan-3-yl)ester] | – | inhibition at 0.1 µM (P2X7): 0 to 25%
O=C(COc1ccc(OC(F)(F)F)cc1)N1CCc2c(ncnc2NCC23CC4CC(CC(C4)C2)C3)C1 [Compound 251, 1-{4-[(Adamantan-1-ylmethyl)-amino]-5,8-dihydro-6H-pyrido[3,4-d]pyrimidin-7-yl}-2-(4-trifluoromethoxy-phenoxy)-ethanone] | – | inhibition at 0.1 µM (P2X7): 0 to 25%
FC12CC3CC(C1)CC(CNc1ncnc4c1CCN(Cc1ccccc1)C4)(C3)C2 [Compound 252] | – | inhibition at 0.1 µM (P2X7): > 75%
O=C(c1cnn(-c2ccccc2)c1C(F)(F)F)N1CCc2c(ncnc2NCC23CC4CC(CC(C4)C2)C3)C1 [Compound 255] | > 75% | –
O=C(c1cccnc1)N1CCc2c(ncnc2NCC23CC4CC(CC(C4)C2)C3)C1 [Compound 257, 4-[(Adamantan-1-ylmethyl)-amino]-5,8-dihydro-6H-pyrido[3,4-d]pyrimidin-7-yl-pyridin-3-yl-methanone] | – | inhibition at 0.1 µM (P2X7): > 75%
CN(C)CCN1CCN(CC(=O)N2CCc3c(ncnc3NCC34CC5CC(CC(C5)C3)C4)C2)CC1 [Compound 258] | 0 to 25% | –
O=C(CN1CCN(c2ccccc2)CC1)N1CCc2c(ncnc2NCC23CC4CC(CC(C4)C2)C3)C1 [Compound 259] | 50 to 75% | –
CN(CC(=O)N1CCc2c(ncnc2NCC23CC4CC(CC(C4)C2)C3)C1)Cc1ccccc1 [Compound 260] | – | inhibition at 0.1 µM (P2X7): > 75%
O=C(CNC1CCN(Cc2ccccc2)CC1)N1CCc2c(ncnc2NCC23CC4CC(CC(C4)C2)C3)C1 [Compound 261] | 25 to 50% | –
O=C(CN1CCC(Cc2ccccc2)CC1)N1CCc2c(ncnc2NCC23CC4CC(CC(C4)C2)C3)C1 [Compound 264] | 25 to 50% | –
O=C(CN1CCCCC1)N1CCc2c(ncnc2NCC23CC4CC(CC(C4)C2)C3)C1 [Compound 266] | – | inhibition at 0.3 µM (P2X7, read-out: IL-1β % inhib @ 0.3 μM): 0 to 25%
O=C(CN1CCN(CC(=O)N2CCc3c(ncnc3NCC34CC5CC(CC(C5)C3)C4)C2)CC1)N1CCOCC1 [Compound 267] | 0 to 25% | –
CCN(CC(=O)N1CCc2c(ncnc2NCC2C3CC4CC(C3)CC2C4)C1)Cc1ccncc1 (centres unmarked) [Compound 268] | 50 to 75% | –
CN(CC(=O)N1CCc2c(ncnc2NCC2C3CC4CC(C3)CC2C4)C1)C1CCCCC1 (centres unmarked) [Compound 269] | 50 to 75% | –
O=C(CN1CCN(Cc2ccccc2)CC1)N1CCc2c(ncnc2NCC2C3CC4CC(C3)CC2C4)C1 (centres unmarked) [Compound 271] | 0 to 25% | –
O=C(CN1CCOCC1)N1CCc2c(ncnc2NCC2C3CC4CC(C3)CC2C4)C1 (centres unmarked) [Compound 272] | 0 to 25% | –
O=C(CN1CCc2ccccc2C1)N1CCc2c(ncnc2NCC2C3CC4CC(C3)CC2C4)C1 (centres unmarked) [Compound 274] | 25 to 50% | –
O=C(CN1CCCCCC1)N1CCc2c(ncnc2NCC2C3CC4CC(C3)CC2C4)C1 (centres unmarked) [Compound 275] | 0 to 25% | –
